Paper PMC7098970, “Neurosteroids as Selective Inhibitors of Glycine Receptor Activity: Structure-Activity Relationship Study on Endogenous Androstanes and Androstenes” (Frontiers in Molecular Neuroscience, 2020)
Entries after “also recorded” stand apart in the source; their conditions may differ. Where two headings read alike, the source gives them in different places.

Legend:
glycine receptor (GlyR) = assay: Glycine-induced chloride current (IGly), whole-cell patch-clamp in isolated pyramidal neurons of the rat hippocampus; format: cell-based; conditions: for τdes/τdes control of IGly: 0.1 μM of steroid; for τdes/τdes control of IGly / Ipeak/Ipeak control of IGly: mean ± SEM, normalized; for Ipeak/Ipeak control of IGly: 10 μM of steroid; for Ipeak max (maximum inhibition attainable) of IGly / Ipeak Hill coefficient of IGly: peak amplitude
Procedure: (§1) All experiments were conducted per the requirements of the Ministry of Public Health of the Russian Federation and were consistent with the EU directive for Use of Experimental Animals of the European Community. […] The cells were isolated from transverse hippocampal slices as described in detail elsewhere ([Vorobjev, 1991]). Briefly, the slices (200–500 μm) of Wistar rats (11–14 days of age) hippocampus or cerebellum were incubated at room temperature for at least 2 h in a solution containing the following components (in mM): 124 NaCl, 3 KCl, 2 CaCl2, 2 MgSO4, 25 NaHCO3, 1.3 NaH2PO4, 10 D-glucose, pH 7.4. The saline was continuously stirred and bubbled with carbogen (95% 0_2 + 5% CO2). Single pyramidal neurons from the hippocampal CA3 area or Purkinje cells from sagittal slices of the cerebellum were isolated by a vibrating fused glass pipette with a spherical tip.
(§2) Isolated neurons were patch clamped and then lifted into the outflow of the control bath solution. […] The substances were applied through glass capillary, 0.1 mm in diameter, which could be rapidly displaced laterally ([Vorobjev et al., 1996]). A fast perfusion technique allows a complete exchange of external solution surrounding a neuron within 20 ms. […] Transmembrane currents were recorded using a conventional patch-clamp technique in the whole-cell configuration. […] The solution in the recording pipette contained the following (in mM): 40 CsF, 100 CsCl, 0.5 CaCl2, 5 EGTA, 3 MgCl2, 4 NaATP, 5 HEPES, pH 7.3. The composition of the extracellular solution was as follows (in mM): 140 NaCl, 3 KCl, 3 CaCl2, 3 MgCl2, 10 D-glucose, 10 HEPES hemisodium, and pH 7.4. Recording of the currents was performed using EPC7 patch-clamp amplifier (HEKA Electronik, Germany). The holding potential was maintained at −70 mV. Transmembrane currents were filtered at 3 kHz, stored and analyzed with IBM-PC computer, using homemade software.
(§3) Statistical analysis was performed with the help of Prism Graphpad software. All comparisons were made with ANOVA-test using Dunnett’s multiple comparison test and Student’s unpaired t-test at a significance level of p = 0.05. N = 5–8 cells from 3 to 4 animals for every concentration. […] The meanings of asterisks (probability levels) in figures is the following: ^∗P < 0.05, ^∗∗P < 0.01. The IC50 values for steroids inhibition of the IGly and IGABA were determined using the equation: Y = 1 – [max/(1 + (IC50/C)^n)], where max is the maximum inhibition attainable, C is the concentration of steroid, IC50 is the half-maximal inhibitory concentration and n is the slope factor (Hill coefficient).
(§4) First, the ability of steroids to affect the holding current at voltage-clamp regime was tested. […] The experiments with IGly were conducted on rat hippocampal neurons, and experiments with IGABA were conducted on rat cerebellar Purkinje cells.

GABAA receptors = target: T1, GABAA receptors (Rattus norvegicus, UniProt P18508+P62813+P63138); format: cell-based
T1 construct: Single pyramidal neurons from the hippocampal CA3 area or Purkinje cells from sagittal slices of the cerebellum were isolated; endogenous in cells; host or cells: acutely isolated Purkinje cells from cerebellar slices of Wistar rats, 11-14 days old
Procedure: as §1, §2, §3, §4

[1] = Hill fit, time constant of desensitization, 100 μM glycine
[2] = read-out: Ipeak IC50 of IGly, inhibition of peak amplitude, 100 μM glycine
[3] = read-out: τdes IC50 of IGly, acceleration of desensitization (decrease in τdes), 100 μM glycine
[4] = time constant of desensitization, 100 μM glycine
[5] = footnote b: did not modulate IGABA up to the concentration of 10 μM, 5 μM GABA

T1 sequence (P62813 28-455): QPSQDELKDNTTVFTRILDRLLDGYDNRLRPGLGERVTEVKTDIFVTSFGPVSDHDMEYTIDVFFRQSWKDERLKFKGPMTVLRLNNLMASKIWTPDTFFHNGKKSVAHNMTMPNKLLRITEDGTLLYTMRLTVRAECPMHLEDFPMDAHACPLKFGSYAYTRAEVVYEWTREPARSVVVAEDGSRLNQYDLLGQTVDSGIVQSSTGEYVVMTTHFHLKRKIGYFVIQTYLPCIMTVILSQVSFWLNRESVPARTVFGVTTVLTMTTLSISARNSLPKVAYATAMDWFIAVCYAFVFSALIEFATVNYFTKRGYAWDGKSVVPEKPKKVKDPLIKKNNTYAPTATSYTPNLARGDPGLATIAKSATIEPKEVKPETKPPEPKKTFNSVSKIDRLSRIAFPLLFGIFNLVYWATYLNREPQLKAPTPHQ
T1 sequence (P63138 25-474 limits assumed): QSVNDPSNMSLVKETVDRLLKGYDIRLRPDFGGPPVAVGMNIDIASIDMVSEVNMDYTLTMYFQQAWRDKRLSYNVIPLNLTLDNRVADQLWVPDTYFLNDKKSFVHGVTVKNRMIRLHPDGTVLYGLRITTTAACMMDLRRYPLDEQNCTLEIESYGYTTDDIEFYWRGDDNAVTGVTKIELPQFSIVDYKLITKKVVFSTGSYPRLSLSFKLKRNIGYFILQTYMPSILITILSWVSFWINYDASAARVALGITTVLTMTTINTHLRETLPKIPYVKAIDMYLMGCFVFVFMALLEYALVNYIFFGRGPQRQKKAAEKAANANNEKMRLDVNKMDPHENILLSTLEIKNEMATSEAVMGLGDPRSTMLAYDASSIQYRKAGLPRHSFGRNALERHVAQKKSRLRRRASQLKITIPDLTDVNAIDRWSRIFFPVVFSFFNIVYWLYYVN
T1 sequence (P18508 39-466): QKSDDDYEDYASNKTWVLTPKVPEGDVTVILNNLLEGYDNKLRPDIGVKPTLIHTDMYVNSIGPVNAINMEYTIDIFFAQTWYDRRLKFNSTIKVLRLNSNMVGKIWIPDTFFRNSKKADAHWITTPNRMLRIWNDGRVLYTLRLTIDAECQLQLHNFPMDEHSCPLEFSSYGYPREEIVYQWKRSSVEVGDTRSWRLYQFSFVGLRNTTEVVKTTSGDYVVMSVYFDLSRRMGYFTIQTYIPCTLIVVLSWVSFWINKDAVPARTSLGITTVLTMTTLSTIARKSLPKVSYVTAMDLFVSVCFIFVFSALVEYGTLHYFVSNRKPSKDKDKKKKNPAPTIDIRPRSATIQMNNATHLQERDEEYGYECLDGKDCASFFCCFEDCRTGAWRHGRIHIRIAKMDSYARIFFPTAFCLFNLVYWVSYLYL

SMILES	τdes/τdes control of IGly (glycine receptor (GlyR); 100 μM glycine)	τdes IGly (effect on time constant of desensitization) (glycine receptor (GlyR); 10 μM compound, 100 μM glycine)	Ipeak/Ipeak control of IGly (glycine receptor (GlyR); 100 μM glycine)	Ipeak max (maximum inhibition attainable) of IGly (glycine receptor (GlyR); Hill fit, 100 μM glycine)	τdes max (maximum inhibition attainable) of IGly (glycine receptor (GlyR); [1])	Ipeak Hill coefficient of IGly (glycine receptor (GlyR); 100 μM glycine)	IC50 (glycine receptor (GlyR); [2])	IC50 (glycine receptor (GlyR); [3])	τdes Hill coefficient of IGly (glycine receptor (GlyR); [4])	τdes/τdes control of IGABA (GABAA receptors; 10 μM of steroid, 5 μM GABA)	Ipeak/Ipeak control of IGABA (GABAA receptors; 50 μM of steroid, 5 μM GABA)	τdes Hill coefficient of IGly (glycine receptor (GlyR))	τdes IGly (effect on time constant of desensitization) (glycine receptor (GlyR))	τdes max (maximum inhibition attainable) of IGly (glycine receptor (GlyR))	IC50 (glycine receptor (GlyR); read-out: τdes IC50 of IGly)	Ipeak/Ipeak control of IGABA (GABAA receptors)	τdes IGABA (effect in words) (GABAA receptors)	τdes/τdes control of IGABA (GABAA receptors)	other results
C[C@]12CC[C@H]3[C@@H](CCC4=CC(=O)CC[C@@]43C)[C@@H]1CC[C@@H]2O [Compound 1, 17β-Hydroxyandrost-4-en-3-one]	0.68 ± 0.05	−67%	0.75 ± 0.03	0.58 ± 0.10	0.72 ± 0.08	1.1 ± 0.32	19.3 ± 2.3 µM	0.13 ± 0.06 µM	0.58 ± 0.20	0.99 ± 0.02	0.86 ± 0.03								Effect on IGly in words (glycine receptor (GlyR); 0.1 and 1 μM compound): accelerated desensitization without effect on the peak amplitude; Effect on IGly in words (glycine receptor (GlyR); 10 and 100 μM compound): acceleration of desensitization and a decrease in peak amplitude; Acceleration of decay (desensitization) of IGABA (GABAA receptors; 50 μM compound, 5 μM GABA): 23–45%; Decrease in the peak amplitude of IGABA (GABAA receptors; 50 μM compound, 5 μM GABA): 14–25%; τdes IGABA (effect in words) (GABAA receptors; [5]): ^bNo effect
C[C@]12CCC(=O)C=C1CC[C@@H]1[C@@H]2CC[C@]2(C)C(=O)CC[C@@H]12 [Compound 2, Androst-4-en-3,17-dione]	0.73 ± 0.06	−84%	0.82 ± 0.02	0.55 ± 0.09	0.97 ± 0.10	1.1 ± 0.36	18.1 ± 2.9 µM	0.49 ± 0.16 µM	0.60 ± 0.11	0.98 ± 0.02	0.77 ± 0.02								Acceleration of decay (desensitization) of IGABA (GABAA receptors; 50 μM compound, 5 μM GABA): 23–45%; Decrease in the peak amplitude of IGABA (GABAA receptors; 50 μM compound, 5 μM GABA): 14–25%; τdes IGABA (effect in words) (GABAA receptors; [5]): ^bNo effect
C[C@]12CCC(=O)C[C@@H]1CC[C@@H]1[C@@H]2CC[C@]2(C)[C@@H](O)CC[C@@H]12 [Compound 3, 17β-Hydroxy-5α-androstan-3-one]	0.72 ± 0.06		0.78 ± 0.03	0.61 ± 0.08		0.86 ± 0.15	20.1 ± 2.8 µM					0.58 ± 0.13	−82%	0.97 ± 0.11	0.42 ± 0.14 µM	0.95 ± 0.03	^cNo effect	0.98 ± 0.02	Modulation of IGABA (peak amplitude or rate of decay/desensitization) (GABAA receptors): did not modulate; also recorded: remained inactive; also recorded: did not change
C[C@]12CC[C@H](O)C[C@@H]1CC[C@@H]1[C@@H]2CC[C@]2(C)C(=O)CC[C@@H]12 [Compound 4, 3β-Hydroxy-5α-androstan-17-one]	0.66 ± 0.05		0.75 ± 0.03	0.64 ± 0.08		0.97 ± 0.21	17.1 ± 2.3 µM					0.59 ± 0.16	−64%	0.70 ± 0.07	0.12 ± 0.05 µM	0.75 ± 0.03		0.80 ± 0.03	Acceleration of decay (desensitization) of IGABA (GABAA receptors): 23–45%; Decrease in the peak amplitude of IGABA (GABAA receptors): 14–25%; τdes IGABA (effect on time constant of desensitization) (GABAA receptors): −20%
C[C@]12CC[C@H]3[C@@H](CCC4=CC(=O)CC[C@@]43C)[C@@H]1CC[C@H]2O [Compound 5, 17α-Hydroxyandrost-4-en-3-one]	0.66 ± 0.04	−72%	0.80 ± 0.04	0.46 ± 0.09	0.81 ± 0.11	1.2 ± 0.34	17 ± 2.9 µM	0.22 ± 0.08 µM	0.51 ± 0.15	0.97 ± 0.03	1.12 ± 0.08								τdes IGABA (effect in words) (GABAA receptors; footnote c: did not modulate IGABA up to the concentration of 50 μM, 5 μM GABA): ^cNo effect; Modulation of IGABA (peak amplitude or rate of decay/desensitization) (GABAA receptors; up to 50 μM compound, 5 μM GABA): did not modulate; also recorded: remained inactive; also recorded: did not change
C[C@]12CCC(=O)C[C@@H]1CC[C@@H]1[C@@H]2CC[C@]2(C)C(=O)CC[C@@H]12 [Compound 6, 5α-Androstane-3,17-dione]	0.65 ± 0.03	−72%	0.76 ± 0.03	0.51 ± 0.05	0.86 ± 0.10	1.2 ± 0.35	16.3 ± 2.4 µM	0.26 ± 0.09 µM	0.48 ± 0.10							0.92 ± 0.04	^cNo effect	0.99 ± 0.02	Modulation of IGABA (peak amplitude or rate of decay/desensitization) (GABAA receptors): did not modulate; also recorded: remained inactive; also recorded: did not change
C[C@]12CC[C@H]3[C@@H](CC=C4C[C@@H](O)CC[C@@]43C)[C@@H]1CC[C@@H]2O [Compound 7, 3β,17β-Androst-5-ene-3,17-diol]	0.72 ± 0.03		0.75 ± 0.02	0.52 ± 0.09		0.71 ± 0.16	16.2 ± 2.3 µM					0.56 ± 0.13	−70%	0.81 ± 0.09	0.29 ± 0.12 µM	0.77 ± 0.06	^bNo effect	0.98 ± 0.02	Acceleration of decay (desensitization) of IGABA (GABAA receptors): 23–45%; Decrease in the peak amplitude of IGABA (GABAA receptors): 14–25%
CN1CCc2cc3c(cc2[C@H]1[C@@H]1OC(=O)c2c1ccc1c2OCO1)OCO3 [bicuculline, reference compound]																			Block of IGABA (GABAA receptors): reversibly blocked
